According to patent publication US20100112012A1, “MODULATION OF IMMUNE RESPONSES” (CLEVELAND CLINIC FOUNDATION, priority 2005, published 2010):
“Also recorded” adds a separate entry of the source. Read-outs that look alike come from different tables or passages of the source.

What was measured:
[1] = tested on: p53; assay: Screening for p53-activating compounds, p53-responsive reporter in RCC45ConALacZ cells; type: cell-based, human
Method: (§1) Transient transfections. 2×10^5 cells were plated into 6-well plates and, after overnight incubation, transfected with Lipofectamin Plus reagent (Gibco BRL) with 0.5 μg of reporter plasmids (p21-ConALuc or pNF-κBLuc) in combination with different concentrations of plasmids expressing p53, Arf, Ss-IκB, or siHDM2. Corresponding empty vectors were added in all transfections up to 2 μg of total DNA. Normalization of transfection efficiency was done by adding 0.2 μg of pCMV-LacZ plasmid. Luciferase activity and β-galactosidase activity were measured in lysates prepared 48 hours after transfection with Cell Lysis Buffer (Promega) by the luciferase assay system (Promega) or β-galactosidase enzyme system (Promega). Luminometric and colorimetric reactions were read on the Wallack 1420 plate reader (Perkin Elmer). Stable transduction of reporters. 2×10^4 cells with integrated reporter were plated in 96-well plates. After overnight incubation, chemicals or media from lentivirus-producing cells were added. At different times, cell lysates were prepared using Reporter Lysis Buffer (Promega). Luciferase or β-galactosidase activity and protein concentration were measured in aliquots of cell lysates using standard kits (Promega, Luciferase and β-galactosidase assay systems, Biorad Protein Assay Kit).
The DiverSet library of 34,000 chemical compounds and focused libraries of structural analogues of selected hits were provided by Chembridge, Calif. Cell lines with p53- or NF-κB-responsive luciferase or β-galactosidase reporters were described previously (5, 7). For screening chemicals, 2×10^4 RCC45ConALacZ cells (RCC45-based p53 reporter cells) were plated per well of 96-well plates in 200 μL of phenol-red-free RPMI medium with standard additions. After overnight incubation, the compounds were added to final concentrations of 5-15 μM (0.2 μL of compound in DMSO per well). […] After 24 h, lysis buffer with ortho-nitrophenyl-β-D-galactopyranoside (ONPG) was added and β-galactosidase activity was estimated colorimetrically by a multiwell plate reader.

[2] = tested on: NF-κB; assay: NF-κB-dependent reporter in H1299-NF-kBLuc cells; type: cell-based, human; details: TNF 10 ng/ml
Method: as §1

[3] = tested on: NF-κB; assay: Electromobility shift assay and immunofluorescent staining of nuclear NF-κB; type: cell-based, human; details: TNF 10 ng/ml, 10 μM
Description: All washings were done with blocking solution.

[4] = tested on: ACHN cells; assay: Experimental chemotherapy of tumor xenografts; type: in vivo, nude mice; details: 5-fluorouracil 35 mg/kg
Method: NIH Swiss athymic nude, male mice, 5-6 weeks old, were purchased from Harlan. 5×10^6 tumor cells were inoculated into the flanks of mice in 100 μL of PBS. When tumors reached 5 mm in diameter, intraperitoneal injections of drugs were started in 100 μL of a solution of 50% DMSO in PBS (except for quinacrine, which was dissolved in PBS). As vehicle, 50% DMSO solution in PBS was used. Tumor size was measured in three dimensions every other day.

[5] = tested on: antigen-presenting dendritic cells; assay: Flow cytometry of CD11c+/FITC+ dendritic cells in skin draining lymph nodes; type: in vivo, BALB/c mice; details: day +2
Method: LNC were obtained from hapten-sensitized mice on day +2 post-sensitization. To prevent non-specific antibody binding cells were incubated with rat serum (Rockland, Gilbertsville, Pa.) diluted 1:1000 in staining buffer (Dulbecco's PBS with 2% FCS/0.02% NaN3) for 20 min on ice. Then cells were washed and stained with PE-labeled anti-CD11c mAb to detect DC. Stained cells were washed five times, resuspended in staining buffer and analyzed by two-color flow cytometry using a FACScan (Becton Dickinson, San Jose, Calif.).
To detect Langerhans cells in the lymph nodes LNC were obtained 48 h after sensitization with 1% FITC and were stained with PE-labeled anti-CD11c mAb and then analyzed by two-color flow cytometry.

[6] = tested on: proinflammatory cytokines in the skin; assay: IL-1β, TNFα, CCL21 and IκBα expression in sensitized skin (RT-PCR, ELISA); type: in vivo, BALB/c mice; details: quinacrine on days −2 plus −1, 0.25% DNFB
Method: Naive and sensitized mouse skin (˜200 mg) was snap frozen in liquid nitrogen and then ground using a mortar and pestle in liquid nitrogen. Total RNA was extracted using the RNeasy Tissue Kit (Qiagen, Inc., Valencia, Calif.) according to the manufacturer's protocol. For synthesis of cDNA, 2 mg of total RNA from each sample was resuspended in 10 ml of the reaction buffer. cDNA synthesis was performed using M-MLV reverse transcriptase (Promega Corporation, Madison, Wis.) with random primers according to the manufacturer's protocol. The reaction was stopped by denaturing the enzyme at 99° C. for 5 min. and the mixture was diluted with distilled water to a final volume of 50 ml. Aliquots (3 ml) of the synthesized cDNA were added to 47 ml of PCR mixture, containing 1×PCR buffer, MgCl2 (1.5 mM), dNTP (0.2 mM each), primer mix (0.5 mM each) and 2.0 units of Taq DNA polymerase (all from Invitrogen Corp., Carlsbad, Calif.). PCR primers for mouse GAPDH, IκBα, TNF-α, IL-1β and CCL21 were purchased from Integrated DNA Technologies, Inc. (Coralville, Iowa) and contained the following sequences:
Amplification was initiated by 1 min of denaturation at 95° C. for 1 cycle. […] For each set of primers, dilutions of cDNA were amplified for 20-40 cycles to define optimal conditions for linearity and to permit semi-quantitative analysis of signal strength. […]

[7] = tested on: MHC-mismatched heart grafts; details: quinacrine on days −2, −1, +5, +14, +16; for survival of heart allografts: A/J donors to C57BL/6
Method: Heterotopic cardiac transplants were performed using microsurgical techniques. Briefly, donor hearts were harvested and placed in chilled Ringer's solution while the recipient mice were prepared. […] Upon completion of the anastomoses and organ reperfusion, the heart grafts resumed spontaneous contraction. The strength and quality of cardiac graft impulses were monitored each day by palpation of the abdomen. Rejection of cardiac grafts was considered complete by cessation of impulse and was confirmed visually for each graft by laparotomy.

CCN(CC)CCCC(C)Nc1c2ccc(Cl)cc2nc2ccc(OC)cc12 (stereo not drawn) [QC, quinacrine]
activation of the p53-dependent reporter (p53 transactivation) in RCC [1]: effective inducer of p53 transactivation in RCC | basal and TNF-induced NF-κB reporter activities ([2]; H1299-NF-kB-Luc cells): strong dose-dependent suppression; also recorded: capable of inhibiting both basal and TNF-induced activities of NF-κB | timing of addition relative to TNF needed to inhibit NF-κB ([2]; H1299-NF-κBLuc cells): can inhibit NF-κB when added before, simultaneously with or after TNF stimulation | nuclear accumulation and retention of NF-κB (p65) complexes [3]: greatly prolonged the time of its presence in nuclei | growth of tumor xenografts ([4]; ACHN cells subcutaneous in nude mice, QC 50 mg/kg intraperitoneal): inhibited the growth of tumor xenografts; also recorded: same antitumor effect as 5-fluorouracil | weight loss ([4]; ACHN xenograft nude mice, QC 50 mg/kg): without the significant weight loss | numbers of antigen-presenting dendritic cells in the skin draining lymph nodes ([5]; quinacrine on days 0 and +1 (during 1% FITC sensitization)): increased numbers of antigen-presenting dendritic cells | numbers of antigen-presenting dendritic cells in the skin draining lymph nodes ([5]; quinacrine on days −2 and −1 (prior to 1% FITC sensitization)): decreased numbers of antigen-presenting dendritic cells | antigen-induced mRNA expression and protein production of proinflammatory cytokines in the skin [6]: decreases antigen-induced mRNA expression and protein production of proinflammatory cytokines in the skin | survival of heart allografts ([7]; listed as Quinacrine): extended the survival of all grafts | survival of heart allografts ([7]; listed as quinacrine): significant prolongation of allograft survival | rejection of heart allografts ([7]; groups of 5): absence of rejection in one of the allografts
